Data published in patent US20240327417A1, “HETEROCYCLIC COMPOUNDS” (BeiGene Switzerland GmbH, priority 2021, published 2024).

Experiments:
[1] = target: T1, Full length DGKα (D21-10BG, SignalChem) (Homo sapiens, UniProt P23743); assay: Biochemical DGK IC50 assay (ADP-Glo, lipid micelle substrate), DGKα; settings: 7.5 nM enzyme, 140 μM ATP, 80 μM DAG, 1 hour preincubation, 1 hour reaction, room temperature, read-out: IC50s for DGKα
T1 construct: Full length DGKα (D21-10BG, SignalChem); purchased SignalChem D21-10BG
T1 sequence (P23743 whole entry): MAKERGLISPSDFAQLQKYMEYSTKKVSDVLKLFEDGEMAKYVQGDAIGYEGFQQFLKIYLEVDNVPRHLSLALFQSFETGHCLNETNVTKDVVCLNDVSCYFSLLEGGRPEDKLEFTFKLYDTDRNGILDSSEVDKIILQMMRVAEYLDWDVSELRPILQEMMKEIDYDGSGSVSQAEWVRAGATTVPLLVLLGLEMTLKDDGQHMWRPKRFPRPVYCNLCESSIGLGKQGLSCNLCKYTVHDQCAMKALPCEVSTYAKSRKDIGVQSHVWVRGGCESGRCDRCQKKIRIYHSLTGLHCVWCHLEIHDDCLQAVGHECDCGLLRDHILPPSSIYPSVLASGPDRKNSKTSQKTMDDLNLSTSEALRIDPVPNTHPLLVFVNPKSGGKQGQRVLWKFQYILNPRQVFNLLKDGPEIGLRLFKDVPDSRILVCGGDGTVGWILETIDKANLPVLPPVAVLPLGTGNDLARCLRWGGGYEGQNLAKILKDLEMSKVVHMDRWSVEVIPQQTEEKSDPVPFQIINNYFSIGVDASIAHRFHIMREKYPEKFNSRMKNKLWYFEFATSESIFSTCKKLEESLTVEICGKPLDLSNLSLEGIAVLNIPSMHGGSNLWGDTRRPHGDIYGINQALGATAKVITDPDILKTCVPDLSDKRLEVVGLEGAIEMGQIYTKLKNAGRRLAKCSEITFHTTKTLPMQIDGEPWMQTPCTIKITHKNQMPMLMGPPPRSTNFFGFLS
How it was run: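 Full-length enzyme was assayed by ADP-Glo on DAG/PS lipid micelles at room temperature in HEPES/MgCl2/CaCl2 buffer with BSA, Na3VO4 and Tween-20, using a 1 h reaction and luminescence read-out.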

[2] = target: T2, Full length DGKζ (in-house protein M1-V929) (Homo sapiens, UniProt Q13574); assay: Biochemical DGK IC50 assay (ADP-Glo, lipid micelle substrate), DGKζ; settings: 0.5 nM enzyme, 140 μM ATP, 80 μM DAG, 1 hour preincubation, 1 hour reaction, room temperature, read-out: IC50s for DGKζ
T2 construct: His (N); TEV cleavage site (N); made in house; host or cells: Sf9 insect cells (baculovirus, Bac-to-Bac)
T2 sequence (Q13574 1-929 isoform Q13574-4): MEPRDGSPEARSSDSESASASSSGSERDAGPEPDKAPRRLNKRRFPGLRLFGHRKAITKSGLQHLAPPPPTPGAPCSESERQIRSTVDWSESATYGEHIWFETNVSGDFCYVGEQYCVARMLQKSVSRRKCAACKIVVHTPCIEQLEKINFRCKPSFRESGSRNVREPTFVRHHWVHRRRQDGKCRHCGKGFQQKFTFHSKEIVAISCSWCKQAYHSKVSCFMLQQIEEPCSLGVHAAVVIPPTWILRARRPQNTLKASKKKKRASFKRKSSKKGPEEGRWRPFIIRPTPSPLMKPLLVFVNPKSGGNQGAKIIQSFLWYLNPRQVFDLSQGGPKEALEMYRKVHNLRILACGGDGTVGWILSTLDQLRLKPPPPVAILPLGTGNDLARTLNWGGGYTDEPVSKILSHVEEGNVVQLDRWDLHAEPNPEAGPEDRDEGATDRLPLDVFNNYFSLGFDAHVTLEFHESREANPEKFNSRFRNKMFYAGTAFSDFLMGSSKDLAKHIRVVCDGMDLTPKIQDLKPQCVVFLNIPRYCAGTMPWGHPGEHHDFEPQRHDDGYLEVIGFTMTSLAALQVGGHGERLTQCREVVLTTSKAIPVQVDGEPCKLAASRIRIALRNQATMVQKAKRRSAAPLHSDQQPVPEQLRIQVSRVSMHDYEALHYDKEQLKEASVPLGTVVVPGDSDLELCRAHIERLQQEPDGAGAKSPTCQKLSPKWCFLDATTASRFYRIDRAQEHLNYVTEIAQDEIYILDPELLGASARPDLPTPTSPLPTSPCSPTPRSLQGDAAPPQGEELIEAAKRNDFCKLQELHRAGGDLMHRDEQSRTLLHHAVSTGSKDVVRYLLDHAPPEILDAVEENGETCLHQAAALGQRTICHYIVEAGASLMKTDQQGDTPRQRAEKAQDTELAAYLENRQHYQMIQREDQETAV
How it was run: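 In-house full-length human DGKζ, baculovirus-expressed in Sf9 cells, was assayed with a DAG/PS lipid micelle substrate at room temperature. Buffer was 50 mM HEPES, 10 mM MgCl2, 0.01% BSA, 0.1 mM Na3VO4, 0.005% Tween-20, 0.01 mM CaCl2, with final compound 1.55˜10000 nM or 23.3˜150000 nM.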

Compound	IC50 [1]	IC50 [2]
CC(c1ccc2c(c1)OCO2)N1C[C@H](C)N(c2cc(=O)n(C)n3cc(CC#N)nc23)C[C@H]1C (stereo partly drawn) [Compound A29, 2-(8-((2S,5R)-4-(1-(benzo[d][1,3]dioxol-5-yl)ethyl)-2,5-dimethylpiperazin-1-yl)-5-methyl-6-oxo-5,6-dihydroimidazo[1,2-b]pyridazin-2-yl)acetonitrile]	296 nM	474 nM
CC[C@H]1CN(C(C)c2ccc3scnc3c2F)[C@H](CC)CN1c1cc(=O)n(C)n2cc(CC#N)nc12 (single isomer, unassigned) [Compound A66a]	105 nM	22 nM
CC[C@@H]1CN(c2cc(=O)n(C)n3cc(C=NOC)nc23)[C@@H](C)CN1C(C)c1ccc2nccnc2c1 (single isomer, unassigned) [Compound A9d]	211 nM	> 10000 nM
CC[C@H]1CN(C(C)c2cc3sc(C)nc3cc2F)[C@H](CC)CN1c1cc(=O)n(C)n2cc(CC#N)nc12 (single isomer, unassigned) [Compound A61a]	400 nM	126 nM
CC[C@H]1CN(C(C)c2ccc3scnc3c2)[C@H](CC)CN1c1cc(=O)n(C)n2cc(CC#N)nc12 (single isomer, unassigned) [Compound A65a]	47 nM	7 nM
CC(c1ccc2ncc(Cl)nc2c1)N1C[C@H](C)N(c2cc(=O)n(C)n3cc(CC#N)nc23)C[C@H]1C (stereo partly drawn) [Compound A21, 2-(8-((2S,5R)-4-(1-(3-chloroquinoxalin-6-yl)ethyl)-2,5-dimethylpiperazin-1-yl)-5-methyl-6-oxo-5,6-dihydroimidazo[1,2-b]pyridazin-2-yl)acetonitrile]	2710 nM	27 nM
CC[C@H]1CN(C(C)c2ccncc2)[C@H](CC)CN1c1cc(=O)n(C)n2cc(CC#N)nc12 (stereo partly drawn) [Compound A35, 2-(8-((2S,5R)-2,5-diethyl-4-(1-(pyridin-4-yl)ethyl)piperazin-1-yl)-5-methyl-6-oxo-5,6-dihydroimidazo[1,2-b]pyridazin-2-yl)acetonitrile]	42 nM	3120 nM
Cc1cnc2ccc(C(C)N3C[C@H](C)N(c4cc(=O)n(C)n5cc(CC#N)nc45)C[C@H]3C)cc2n1 (single isomer, unassigned) [Compound A2b]	11600 nM	11 nM
CC(c1ccc2nccnc2c1)N1C[C@H](C)N(c2cc(=O)n(C)n3cc(CC#N)nc23)C[C@H]1C (single isomer, unassigned) [Compound A1b]	2750 nM	> 10000 nM
CC[C@H]1CN(C(C)c2ccc3ncsc3c2)[C@H](CC)CN1c1cc(=O)n(C)n2cc(CC#N)nc12 (single isomer, unassigned) [Compound A53b]	235 nM	215 nM
CC(c1ccc2c(c1)OC(F)(F)O2)N1C[C@H](C)N(c2cc(=O)n(C)n3cc(CC#N)nc23)C[C@H]1C (stereo partly drawn) [Compound A31, 2-(8-((2S,5R)-4-(1-(2,2-difluorobenzo[d][1,3]dioxol-5-yl)ethyl)-2,5-dimethylpiperazin-1-yl)-5-methyl-6-oxo-5,6-dihydroimidazo[1,2-b]pyridazin-2-yl)acetonitrile]	1970 nM	1130 nM
CC[C@H]1CN(C(C)c2ccc(C(C)(C)F)nc2)[C@H](CC)CN1c1cc(=O)n(C)n2cc(CC#N)nc12 (single isomer, unassigned) [Compound A46a]	122 nM	6.4 nM
CC[C@H]1CN(C(C)c2ccc3ncsc3n2)[C@H](CC)CN1c1cc(=O)n(C)n2cc(CC#N)nc12 (single isomer, unassigned) [Compound A57a]	7.9 nM	6.8 nM
CC(c1ccc2c(c1)OC(C)(C)CO2)N1C[C@H](C)N(c2c(C#N)c(=O)n(C)n3cc(CC#N)nc23)C[C@H]1C (single isomer, unassigned) [Compound A27b]	486 nM	579 nM
CC[C@H]1CN(C(C)c2ccc3nccnc3c2)[C@H](CC)CN1c1cc(=O)n(C)n2cc(COC)nc12 (single isomer, unassigned) [Compound A8a]	1310 nM	25 nM
CC[C@H]1CN(C(C)c2ccc3nc(C)sc3c2)[C@H](CC)CN1c1cc(=O)n(C)n2cc(CC#N)nc12 (single isomer, unassigned) [Compound A56a]	87 nM	11 nM
CC[C@H]1CN(C(C)c2ccc(C3CC3)nc2)[C@H](CC)CN1c1cc(=O)n(C)n2cc(CC#N)nc12 (single isomer, unassigned) [Compound A37b]	260 nM	538 nM
CC(c1ccc2nccnc2c1)N1C[C@H](C)N(c2cc(=O)n(C)n3cc(CC#N)nc23)C[C@H]1C (mixture of isomers) [Compound A1, 2-(8-((2S,5R)-2,5-dimethyl-4-(1-(quinoxalin-6-yl)ethyl)piperazin-1-yl)-5-methyl-6-oxo-5,6-dihydroimidazo[1,2-b]pyridazin-2-yl)acetonitrile]	2000 nM	78 nM
CC[C@H]1CN(C(C)c2ccc3nccnc3c2)[C@H](CC)CN1c1cc(=O)n(C)n2cc(CC#N)nc12 (single isomer, unassigned) [Compound A14b]	1420 nM	358 nM
CC[C@H]1CN(C(C)c2ccc(C(C)C)nc2)[C@H](CC)CN1c1cc(=O)n(C)n2cc(CC#N)nc12 (single isomer, unassigned) [Compound A38a]	43 nM	21 nM
CC[C@H]1CN(C(C)c2ccc3nc(C)sc3n2)[C@H](CC)CN1c1cc(=O)n(C)n2cc(CC#N)nc12 (single isomer, unassigned) [Compound A58a]	1220 nM	2160 nM

Now from value to compound:

IC50 [1]	IC50 [2]	Compound
72 nM	39 nM	CC[C@H]1CN(C(C)c2ccc(C3(F)CC3)cc2)[C@H](CC)CN1c1cc(=O)n(C)n2cc(CC#N)nc12 (stereo partly drawn) [Compound A88, 2-(8-((2S,5R)-2,5-diethyl-4-(1-(4-(1-fluorocyclopropyl)phenyl)ethyl)piperazin-1-yl)-5-methyl-6-oxo-5,6-dihydroimidazo[1,2-b]pyridazin-2-yl)acetonitrile]
113 nM	28 nM	CC[C@H]1CN(C(C)c2ccc3nc(C4CC4)sc3n2)[C@H](CC)CN1c1cc(=O)n(C)n2cc(CC#N)nc12 (single isomer, unassigned) [Compound A109b]
2080 nM	861 nM	[2H]C([2H])([2H])c1nc2ccc(C(C)N3C[C@H](CC)N(c4cc(=O)n(C)n5cc(CC#N)nc45)C[C@H]3CC)cc2s1 (single isomer, unassigned) [Compound A96b]
3790 nM	1150 nM	[2H]C([2H])([2H])n1c(=O)cc(N2C[C@@H](CC)N(C(C)c3ccc4nc(C)sc4c3)C[C@@H]2CC)c2nc(CC#N)cn21 (single isomer, unassigned) [Compound A94b]
102 nM	255 nM	CCC(c1ccc(C(F)(F)F)cc1)N1C[C@H](CC)N(c2cc(=O)n(C)n3cc(CC#N)nc23)C[C@H]1CC (single isomer, unassigned) [Compound A77a]
1430 nM	1550 nM	CC[C@@H]1CN(c2c(C#N)c(=O)n(C)n3cc(CC#N)nc23)[C@@H](C)CN1C(C)c1ccc(C2CC2)nc1 (single isomer, unassigned) [Compound A74b]
2.7 nM	49 nM	CC#CCc1cn2c(n1)c(N1C[C@@H](CC)N(C(C)c3ccc4nc(C)sc4n3)C[C@@H]1CC)cc(=O)n2C (single isomer, unassigned) [Compound A115b]
169 nM	52 nM	CC[C@@H]1CN(c2cc(=O)n(C)n3cc(CC#N)nc23)[C@@H](C)CN1C(C)c1ccc2nc(C)sc2n1 (single isomer, unassigned) [Compound A84a]
79 nM	24 nM	[2H]C([2H])([2H])c1nc2ccc(C(C)N3C[C@H](CC)N(c4cc(=O)n(C([2H])([2H])[2H])n5cc(CC#N)nc45)C[C@H]3CC)cc2s1 (single isomer, unassigned) [Compound A97a]
5.9 nM	630 nM	CC[C@H]1CN(C(C)c2ccc3nc(C)sc3n2)[C@H](CC)CN1c1cc(=O)n(C)n2cc(C=NOC)nc12 (single isomer, unassigned) [Compound A124d]
118 nM	132 nM	CC#CCc1cn2c(n1)c(N1C[C@@H](CC)N(C(C)c3ccc4nc(C)sc4c3F)C[C@@H]1CC)cc(=O)n2C (single isomer, unassigned) [Compound A116a]
340 nM	51 nM	CC[C@H]1CN(C(C)c2ccc3nc(C)sc3c2F)[C@H](C)CN1c1cc(=O)n(C)n2cc(CC#N)nc12 (single isomer, unassigned) [Compound A119b]
87 nM	52 nM	CC[C@H]1CN(C(C)c2ccc(C(F)(F)F)cc2F)[C@H](CC)CN1c1cc(=O)n(C)n2cc(CC#N)nc12 (single isomer, unassigned) [Compound A92a]
832 nM	302 nM	CC[C@H]1CN(C(C)c2ccc(C3CC3)nc2)[C@H](CC)CN1c1c(F)c(=O)n(C)n2cc(CC#N)nc12 (single isomer, unassigned) [Compound A73b]
